Measurements taken from patent US20230212549A1, “COMPOUNDS COMPRISING A […] LIGAND AND USE THEREOF” (priority 2021, published 2023).
Numbered stars: 1 amine (or outer) side, 2 acyl side, 3 side chain; on linkers, the order of the positions; unused ones are H or OH. Bridge positions count the residues as written; N and C are the ends. Square brackets hold non-standard residues; d marks the D form. Peptide text beside a SMILES is read from it. * marks the point of attachment. X12 = O=C(O)CN1CCN(CC(=O)O)CCN(CC(=O)NCCCOCCOCCOCCCN*)CCN(CC(=O)O)CC1; Phe(2-Cl) = N[C@@H](Cc1ccccc1Cl)C(=O)O; 2Nal = N[C@@H](Cc1ccc2ccccc2c1)C(=O)O; mXylylene = c1cc(C[*:1])cc(C[*:2])c1; NMeF = CN[C@@H](Cc1ccccc1)C(=O)O; Suc = O=C(CCC(=O)[*:2])[*:1]; Hexanoyl = CCCCCC(=O)*; Nleu = CC(C)CNCC(=O)O

Experiments:
[1] = biological target: T1, FAP-expressing human WI-38 fibroblasts (Homo sapiens, UniProt Q12884); experiment: Competitive FACS binding assay
T1 construct: FAP-expressing human WI-38 fibroblasts (ECACC) were cultured in EMEM; host or cells: WI-38 human fibroblasts
T1 sequence (Q12884 whole entry): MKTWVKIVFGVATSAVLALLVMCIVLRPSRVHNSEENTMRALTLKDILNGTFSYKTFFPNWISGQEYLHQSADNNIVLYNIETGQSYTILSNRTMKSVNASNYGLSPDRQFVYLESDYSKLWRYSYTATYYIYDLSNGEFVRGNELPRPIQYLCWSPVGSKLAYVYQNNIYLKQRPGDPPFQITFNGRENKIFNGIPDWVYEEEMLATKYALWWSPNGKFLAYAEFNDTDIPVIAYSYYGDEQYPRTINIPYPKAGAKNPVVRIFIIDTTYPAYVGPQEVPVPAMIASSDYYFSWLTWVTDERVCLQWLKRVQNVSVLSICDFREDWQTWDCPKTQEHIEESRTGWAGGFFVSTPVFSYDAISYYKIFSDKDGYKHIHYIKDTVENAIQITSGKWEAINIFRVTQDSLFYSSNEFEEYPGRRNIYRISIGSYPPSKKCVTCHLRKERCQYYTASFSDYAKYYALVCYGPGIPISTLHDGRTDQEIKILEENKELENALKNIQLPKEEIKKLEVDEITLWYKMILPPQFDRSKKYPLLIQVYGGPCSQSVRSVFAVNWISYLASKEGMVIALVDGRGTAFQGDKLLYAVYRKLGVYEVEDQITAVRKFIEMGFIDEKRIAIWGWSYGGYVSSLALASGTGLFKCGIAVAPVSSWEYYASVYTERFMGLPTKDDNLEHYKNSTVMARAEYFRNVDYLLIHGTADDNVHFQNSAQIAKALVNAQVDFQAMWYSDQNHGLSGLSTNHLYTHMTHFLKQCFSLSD
Protocol: Cells were analyzed in an Attune NxT flow cytometer. […] […].
Cells were analyzed in an Attune NxT flow cytometer. […]

Human recombinant FAP = Human recombinant FAP (Homo sapiens, UniProt Q12884); experiment: FRET-based FAP protease activity assay; type: biochemical; design: purchased R&D systems 3715-SE
Human recombinant FAP, sequence (Q12884 whole entry): as above

[2] = pIC50 Category (Activity), FRET-based FAP protease activity assay, recombinant human FAP, 37° C.

Row | IC50 [1] | IC50 (Human recombinant FAP; [2]) | IC50 (Human recombinant FAP; pIC50 (highest activity categories), text on Table 9 categories (FACS binding and FAP activity assay)) | IC50 (Human recombinant FAP; pIC50 Category (Activity), FRET-peptide substrate, 37° C.) | Structure (SMILES) | IC50 (Human recombinant FAP; pIC50 Category (activity), Recombinant human FAP)
1 | 100 to 794 nM | 10 to 79.4 nM | – | – | CCCCCC(=O)N[C@H]1CSCc2cccc(c2)CSC[C@@H](C(N)=O)NC(=O)[C@H](Cc2ccccc2Cl)NC(=O)[C@H](CCC(=O)O)NC(=O)[C@H]([C@@H](C)O)NC(=O)[C@@H]2CCCN2C(=O)[C@@H]2CCCN2C1=O [3BP-3368, Hex-[Cys(3MeBn)-Pro-Pro-Thr-Glu-Ocf-Cys]-NH2] (Hexanoyl-CPPTE[Phe(2-Cl)]C-NH2; linker 1-7 via mXylylene) | –
2 | < 10 nM | < 10 nM | < 10 nM | – | CSCC[C@H](NC(=O)CCC(=O)NCCCOCCOCCOCCCNC(=O)CN1CCN(CC(=O)O)CCN(CC(=O)O)CCN(CC(=O)O)CC1)C(=O)N[C@H]1CSCc2cccc(c2)CSC[C@@H](C(=O)N[C@@H](CC(=O)O)C(=O)N[C@@H](Cc2c[nH]cn2)C(=O)N[C@@H](Cc2ccccc2)C(=O)N[C@@H](CCCNC(=N)N)C(=O)N[C@@H](CC(=O)O)C(N)=O)NC(=O)[C@H](Cc2ccccc2)NC(=O)[C@H](CCC(=O)O)NC(=O)[C@H]([C@@H](C)O)NC(=O)[C@@H]2CCCN2C(=O)[C@@H]2CCCN2C1=O [3BP-3169, DOTA-Ttds-Met-[Cys(3MeBn)-Pro-Pro-Thr-Glu-Phe-Cys]-Asp-His-Phe-Arg-Asp-NH2] ({X12-Suc}-MCPPTEFCDHFRD-NH2; linker 2-8 via mXylylene) | –
3 | > 1000 nM | > 1000 nM | – | – | CCCCCC(=O)N[C@H]1CSCc2cccc(c2)CSC[C@@H](C(N)=O)NC(=O)[C@H](Cc2ccccc2)NC(=O)[C@H](CCC(N)=O)NC(=O)[C@H]([C@@H](C)O)NC(=O)[C@@H]2CCCN2C(=O)CN(CC(C)C)C1=O [3BP-3749, Hex-[Cys(3MeBn)-Nleu-Pro-Thr-Gln-Phe-Cys]-NH2] (Hexanoyl-C[Nleu]PTQFC-NH2; linker 1-7 via mXylylene) | –
4 | 100 to 794 nM | 100 to 794 nM | – | – | CCCCCC(=O)N[C@H]1CSCc2cccc(c2)CSC[C@@H](C(N)=O)NC(=O)[C@H](Cc2ccc3ccccc3c2)NC(=O)[C@H](CCC(=O)O)NC(=O)[C@H]([C@@H](C)O)NC(=O)[C@@H]2CCCN2C(=O)[C@@H]2CCCN2C1=O [3BP-3362, Hex-[Cys(3MeBn)-Pro-Pro-Thr-Glu-2Ni-Cys]-NH2] (Hexanoyl-CPPTE[2Nal]C-NH2; linker 1-7 via mXylylene) | –
5 | > 1000 nM | 100 to 794 nM | – | – | CCCCCC(=O)N[C@H]1CSCc2cccc(c2)CSC[C@@H](C(N)=O)NC(=O)[C@H](Cc2ccccc2)N(C)C(=O)[C@H](CCC(=O)O)NC(=O)[C@H]([C@@H](C)O)NC(=O)[C@@H]2CCCN2C(=O)[C@@H]2CCCN2C1=O [3BP-3358, Hex-[Cys(3MeBn)-Pro-Pro-Thr-Glu-Nmf-Cys]-NH2] (Hexanoyl-CPPTE[NMeF]C-NH2; linker 1-7 via mXylylene) | –
6 | 100 to 794 nM | – | – | 10 to 79.4 nM | CCCC[C@H](NC(=O)CCC(=O)NCCCOCCOCCOCCCNC(=O)[C@H](CCC(=O)NC[C@H](O)[C@@H](O)[C@H](O)[C@H](O)CO)NC(=O)[C@H](CCC(=O)NC[C@H](O)[C@@H](O)[C@H](O)[C@H](O)CO)NC(=O)C(CNCCN)CNCCN)C(=O)N[C@H]1CSCc2cccc(c2)CSC[C@@H](C(=O)O)NC(=O)[C@H](Cc2ccccc2)NC(=O)[C@H](CCC(N)=O)NC(=O)[C@H]([C@@H](C)O)NC(=O)[C@@H]2CCCN2C(=O)[C@@H]2CCCN2C1=O [3BP-4265, N4Ac-Glu(AGLU′)-Glu(AGLU′)-Ttds-Nle-[Cys-(3MeBn)-Pro-Pro-Thr-Gln-Phe-Cys]-OH] | –

Row | Structure (SMILES) | IC50 [1] | IC50 (Human recombinant FAP; [2]) | IC50 (Human recombinant FAP; pIC50 (highest activity categories), text on Table 9 categories (FACS binding and FAP activity assay)) | IC50 (Human recombinant FAP; pIC50 Category (Activity), FRET-peptide substrate, 37° C.) | IC50 (Human recombinant FAP; pIC50 Category (activity), Recombinant human FAP)
7 | CCCCCC(=O)N[C@H]1CSCc2cc(CSCCNC(=O)CCP(=O)(O)CN3CCN(CP(=O)(O)CO)CCN(CP(=O)(O)CO)CC3)cc(c2)CSCC(C(N)=O)NC(=O)[C@H](Cc2ccccc2)NC(=O)[C@H](CCC(N)=O)NC(=O)[C@H]([C@@H](C)O)NC(=O)[C@@H]2CCCN2C(=O)[C@@H]2CCCN2C1=O (stereo partly drawn) [3BP-4729, Hex-[Cys(tMeBn(NOPO-AET))-Pro-Pro-Thr-Gln-Phe-Cys]-NH2] | < 10 nM | – | – | – | < 10 nM
